Data as given in publication PMC11200585, “Prospects for Prostate Cancer Chemotherapy: Cytotoxic Evaluation and Mechanistic Insights of Quinolinequinones with ADME/PK Profile” (Biomedicines, 2024).

What was measured:
Type in all cases: cell-based, human
[1] = tested on: MDA-MB-231/ATCC; test: NCI-60 five-dose assay (breast cancer); conditions: 48 h, SRB; for GI50 / LC50 (concentration killing 50% of cells): Homo sapiens
[2] = tested on: SNB-19; test: NCI-60 one-dose screen (CNS cancer); conditions: 10 µM single dose, 48 h
Procedure: (§1) The obtained quinolinequinones were submitted to NCI, Bethesda, USA, and, as per standard protocol of NCI, all compounds were evaluated for their antiproliferative activity at single-dose assay (10 µM concentration in DMSO) on a panel of 60 cancer cell lines derived from leukemia, non-small-cell lung, colon, CNS, melanoma, ovarian, renal, prostate, and breast, as per protocol. Tested compounds were added to the microtiter culture plates followed by incubation for 48 h at 37 °C. Sulforhodamine B (SRB), a protein-binding dye, is used for endpoint determination. The percent of the growth of the treated cells was determined in comparison to the untreated control cells and the results of each tested compound were reported. Data from one-dose experiments pertain to the percentage growth at 10 μM [16, 17, 18].

[3] = tested on: U251; test: NCI-60 one-dose screen (CNS cancer); conditions: for GP (growth percentage): 10 µM single dose, 48 h
Procedure: as §1

[4] = tested on: SF-295; test: NCI-60 one-dose screen (CNS cancer); conditions: 10 µM single dose, 48 h
Procedure: as §1

[5] = tested on: SF-268; test: NCI-60 one-dose screen (CNS cancer); conditions: 10 µM single dose, 48 h
Procedure: as §1

[6] = tested on: SF-539; test: NCI-60 one-dose screen (CNS cancer); conditions: 10 µM single dose, 48 h
Procedure: as §1

[7] = tested on: SNB-75; test: NCI-60 one-dose screen (CNS cancer); conditions: 10 µM single dose, 48 h
Procedure: as §1

[8] = tested on: SNB-75; test: NCI-60 five-dose assay (CNS cancer); conditions: 48 h, SRB; for GI50 / LC50 (50% lethal concentration): Homo sapiens
[9] = tested on: HS 578T; test: NCI-60 one-dose screen (breast cancer); conditions: 10 µM single dose, 48 h
Procedure: as §1

[10] = tested on: MDA-MB-468; test: NCI-60 one-dose screen (breast cancer); conditions: 10 µM single dose, 48 h
Procedure: as §1

[11] = tested on: BT-549; test: NCI-60 one-dose screen (breast cancer); conditions: 10 µM single dose, 48 h
Procedure: as §1

[12] = tested on: MCF7; test: NCI-60 one-dose screen (breast cancer); conditions: 10 µM single dose, 48 h
Procedure: as §1

[13] = tested on: T-47D; test: NCI-60 one-dose screen (breast cancer); conditions: 10 µM single dose, 48 h
Procedure: as §1

[14] = tested on: MDA-MB-231/ATCC; test: NCI-60 one-dose screen (breast cancer); conditions: 10 µM single dose, 48 h
Procedure: as §1

[15] = tested on: U251; test: NCI-60 five-dose assay (CNS cancer); conditions: SRB; for TGI: 48 h; for GI50 / LC50 (concentration killing 50% of cells): Homo sapiens, U-251, 48 h
[16] = tested on: HT29; test: NCI-60 five-dose assay (colon cancer); conditions: SRB; for TGI: 48 h; for GI50 / LC50 (concentration killing 50% of cells): Homo sapiens, HT-29, 48 h
[17] = tested on: NCI-H23; test: NCI-60 five-dose assay (non-small cell lung cancer); conditions: 48 h, SRB; for GI50 / CC50: Homo sapiens; for CC50: read-out: LC50 (the source's name)
[18] = tested on: COLO 205; test: NCI-60 one-dose screen (colon cancer); conditions: 10 µM single dose, 48 h
Procedure: as §1

[19] = tested on: HCT-15; test: NCI-60 one-dose screen (colon cancer); conditions: 10 µM single dose, 48 h
Procedure: as §1

[20] = tested on: HT29; test: NCI-60 one-dose screen (colon cancer); conditions: for GP (growth percentage): 10 µM single dose, 48 h; for inhibition at 10 µM: Homo sapiens, HT-29, 10 µM single dose
Procedure: as §1

[21] = tested on: SW-620; test: NCI-60 one-dose screen (colon cancer); conditions: 10 µM single dose, 48 h
Procedure: as §1

[22] = tested on: HCT-116; test: NCI-60 one-dose screen (colon cancer); conditions: 10 µM single dose, 48 h
Procedure: as §1

[23] = tested on: HCC-2998; test: NCI-60 one-dose screen (colon cancer); conditions: 10 µM single dose; for GP (growth percentage): 48 h
Procedure: as §1

[24] = tested on: KM12; test: NCI-60 one-dose screen (colon cancer); conditions: 10 µM single dose, 48 h
Procedure: as §1

[25] = tested on: HCT-15; test: NCI-60 five-dose assay (colon cancer); conditions: 48 h, SRB
[26] = tested on: UACC-62; test: NCI-60 five-dose assay (melanoma); conditions: 48 h, SRB; for GI50 / LC50 (concentration killing 50% of cells): Homo sapiens
[27] = tested on: SN12C; test: NCI-60 five-dose assay (renal cancer); conditions: 48 h, SRB; for GI50 / LC50 (concentration killing 50% of starting cells): Homo sapiens
[28] = tested on: KM12; test: NCI-60 five-dose assay (colon cancer); conditions: 48 h, SRB; for GI50 / CC50: Homo sapiens; for CC50: read-out: LC50 (the source's name)
[29] = tested on: SF-295; test: NCI-60 five-dose assay (CNS cancer); conditions: 48 h, SRB; for GI50 / LC50 (50% lethal concentration): Homo sapiens
[30] = tested on: LOX IMVI; test: NCI-60 five-dose assay (melanoma); conditions: 48 h, SRB; for GI50 / LC50 (concentration killing 50% of cells): Homo sapiens
[31] = tested on: SK-MEL-5; test: NCI-60 five-dose assay (melanoma); conditions: 48 h, SRB; for GI50 / CC50: Homo sapiens; for CC50: read-out: LC50 (the source's name)
[32] = tested on: HL-60(TB); test: NCI-60 five-dose assay (leukemia); conditions: 48 h, SRB; for GI50 / CC50: Homo sapiens; for CC50: read-out: LC50 (the source's name)
[33] = tested on: SK-MEL-2; test: NCI-60 five-dose assay (melanoma); conditions: 48 h, SRB; for GI50 / CC50: Homo sapiens; for CC50: read-out: LC50 (the source's name)
[34] = tested on: HS 578T; test: NCI-60 five-dose assay (breast cancer); conditions: 48 h, SRB; for GI50 / CC50: Homo sapiens; for CC50: read-out: LC50 (the source's name)
[35] = tested on: SR; test: NCI-60 five-dose assay (leukemia); conditions: 48 h, SRB; for GI50 / CC50: Homo sapiens; for CC50: read-out: LC50 (the source's name)
[36] = tested on: IGROV1; test: NCI-60 five-dose assay (ovarian cancer); conditions: SRB; for TGI: 48 h; for GI50 / LC50: Homo sapiens, IGROV-1, 48 h
[37] = tested on: A549/ATCC; test: NCI-60 five-dose assay (non-small cell lung cancer); conditions: 48 h, SRB; for GI50 / CC50: Homo sapiens; for CC50: read-out: LC50 (the source's name)
[38] = tested on: COLO 205; test: NCI-60 five-dose assay (colon cancer); conditions: 48 h, SRB; for GI50 / CC50: Homo sapiens; for CC50: read-out: LC50 (the source's name)

COc1cc(NC2=C(Cl)C(=O)c3nc(C)ccc3C2=O)cc(OC)c1 [AQQ5]
TGI [1]: 3.08 µM
GI50 [1]: 1.46 µM
LC50 (concentration killing 50% of cells) [1]: 6.48 µM
GP (growth percentage) [2]: 30.42%
GP (growth percentage) [3]: 36.76%
GP (growth percentage) [4]: 51.57%
GP (growth percentage) [5]: 37.00%
GP (growth percentage) [6]: −30.92%
GP (growth percentage) [7]: −4.09%
TGI [8]: 5.37 µM
GI50 [8]: 1.94 µM
LC50 (50% lethal concentration) [8]: 23.2 µM
GP (growth percentage) [9]: −32.78%
GP (growth percentage) [10]: −78.49%
GP (growth percentage) [11]: 24.11%
GP (growth percentage) [12]: −51.73%
GP (growth percentage) [13]: −56.01%
GP (growth percentage) [14]: −28.56%
TGI [15]: 4.44 µM
GI50 [15]: 1.92 µM
LC50 (concentration killing 50% of cells) [15]: 10.8 µM
TGI [16]: 3.48 µM
GI50 [16]: 1.87 µM
LC50 (concentration killing 50% of cells) [16]: 6.48 µM
TGI [17]: 3.15 µM
GI50 [17]: 1.53 µM
CC50 [17]: 6.49 µM
GP (growth percentage) [18]: −80.52%
GP (growth percentage) [19]: −66.21%
GP (growth percentage) [20]: 24.91%
inhibition at 10 µM [20]: 75.1%
GP (growth percentage) [21]: −90.16%
GP (growth percentage) [22]: −97.84%
GP (growth percentage) [23]: 14.44%
inhibition at 10 µM ([23]; Homo sapiens): 85.6%
GP (growth percentage) [24]: 39.30%
TGI [25]: 3.92 µM
GI50 ([25]; Homo sapiens): 1.54 µM
TGI [26]: 3.42 µM
GI50 [26]: 1.77 µM
LC50 (concentration killing 50% of cells) [26]: 6.6 µM
TGI [27]: 3.25 µM
GI50 [27]: 1.71 µM
LC50 (concentration killing 50% of starting cells) [27]: 6.19 µM
TGI [28]: 26.6 µM
GI50 [28]: 13 µM
CC50 [28]: 54.7 µM
TGI [29]: 5.41 µM
GI50 [29]: 1.99 µM
LC50 (50% lethal concentration) [29]: 20.8 µM
TGI [30]: 2.32 µM
GI50 [30]: 1.1 µM
LC50 (concentration killing 50% of cells) [30]: 4.88 µM
TGI [31]: 2.97 µM
GI50 [31]: 1.62 µM
CC50 [31]: 5.47 µM
TGI [32]: 4.65 µM
GI50 [32]: 1.38 µM
CC50 [32]: > 100 µM
TGI [33]: 3.10 µM
GI50 [33]: 1.59 µM
CC50 [33]: 6.03 µM
TGI [34]: 5.78 µM
GI50 [34]: 2.43 µM
CC50 [34]: > 100 µM
TGI [35]: 2.43 µM
GI50 [35]: 0.35 µM
CC50 [35]: > 100 µM
TGI [36]: 3.55 µM
GI50 [36]: 1.73 µM
LC50 [36]: 7.26 µM
TGI [37]: 8.97 µM
GI50 [37]: 2.83 µM
CC50 [37]: 38.8 µM
TGI [38]: 3.08 µM
GI50 [38]: 1.68 µM
CC50 [38]: 5.63 µM

CCOc1ccc(NC2=C(Cl)C(=O)c3nc(C)ccc3C2=O)cc1 [AQQ3]
TGI [1]: 2.50 µM
GI50 [1]: 1.17 µM
LC50 (concentration killing 50% of cells) [1]: 5.34 µM
GP (growth percentage) [2]: 44.68%
GP (growth percentage) [3]: 15.60%
inhibition at 10 µM ([3]; Homo sapiens, U-251, 10 µM single dose): 84.4%
GP (growth percentage) [4]: 51.05%
GP (growth percentage) [5]: 32.33%
GP (growth percentage) [6]: −58.82%
GP (growth percentage) [7]: 96.54%
TGI [8]: 2.79 µM
GI50 [8]: 1.46 µM
LC50 (50% lethal concentration) [8]: 5.33 µM
GP (growth percentage) [9]: 48.97%
GP (growth percentage) [10]: −95.15%
GP (growth percentage) [11]: 46.48%
GP (growth percentage) [12]: −66.97%
GP (growth percentage) [13]: −43.85%
GP (growth percentage) [14]: −71.74%
TGI [15]: 3.54 µM
GI50 [15]: 1.8 µM
LC50 (concentration killing 50% of cells) [15]: 6.94 µM
TGI [16]: 7.08 µM
GI50 [16]: 2.87 µM
LC50 (concentration killing 50% of cells) [16]: 62.5 µM
TGI [17]: 2.85 µM
GI50 [17]: 1.35 µM
CC50 [17]: 6.03 µM
GP (growth percentage) [18]: 98.22%
GP (growth percentage) [19]: −83.19%
GP (growth percentage) [20]: 15.90%
inhibition at 10 µM [20]: 84.1%
GP (growth percentage) [21]: −55.33%
GP (growth percentage) [22]: −83.64%
GP (growth percentage) [23]: −55.70%
GP (growth percentage) [24]: 57.40%
TGI [25]: 2.94 µM
GI50 ([25]; Homo sapiens): 1.3 µM
CC50 ([25]; Homo sapiens, read-out: LC50 (the source's name)): 6.66 µM
TGI [26]: 3.29 µM
GI50 [26]: 1.81 µM
LC50 (concentration killing 50% of cells) [26]: 5.97 µM
TGI [27]: 2.99 µM
GI50 [27]: 1.58 µM
LC50 (concentration killing 50% of starting cells) [27]: 5.66 µM
TGI [28]: 3.07 µM
GI50 [28]: 1.44 µM
CC50 [28]: 6.51 µM
TGI [29]: 3.43 µM
GI50 [29]: 1.86 µM
LC50 (50% lethal concentration) [29]: 6.3 µM
TGI [30]: 2.33 µM
GI50 [30]: 1.06 µM
LC50 (concentration killing 50% of cells) [30]: 5.14 µM
TGI [31]: 3.11 µM
GI50 [31]: 1.72 µM
CC50 [31]: 5.62 µM
TGI [32]: 4.18 µM
GI50 [32]: 1.47 µM
CC50 [32]: > 100 µM
TGI [33]: 3.03 µM
GI50 [33]: 1.63 µM
CC50 [33]: 5.64 µM
TGI [34]: 5.82 µM
GI50 [34]: 2.22 µM
CC50 [34]: > 100 µM
TGI [35]: >100 µM
GI50 [35]: 1.09 µM
CC50 [35]: > 100 µM
TGI [36]: 2.76 µM
GI50 [36]: 1.36 µM
LC50 [36]: 5.61 µM
TGI [37]: 4.64 µM
GI50 [37]: 2.09 µM
CC50 [37]: 17.5 µM
TGI [38]: 3.64 µM
GI50 [38]: 1.86 µM
CC50 [38]: 7.12 µM
